Test results as given in ChEMBL document CHEMBL3351907, “Design, synthesis and biological evaluation of benzyl 2-(1H-imidazole-1-yl) pyrimidine analogues as selective and potent Raf inhibitors” (Bioorg Med Chem Lett, 2014).
Active and inactive are the calls of the source. The rule behind the calls is not given here.

Legend:
Assay type in all cases: functional
[1] = (§1) Cytotoxicity against human A375P cells assessed as cell viability after 24 hrs by MTT assay
[2] = (§2) Cytotoxicity against human U937 cells assessed as cell viability after 24 hrs by MTT assay; conditions: U-937, 24 h
[3] = test system: A375P; assay: as §1
[4] = test system: U-937; assay: as §2

C[C@H](O)CNc1nccc(-n2ccnc2Cc2cccc(NC(=O)C(c3ccc(Cl)cc3)c3ccc(Cl)cc3)c2)n1
GI50 [1]: 3.97 µM
GI50 [2]: 3.24 µM

C[C@H](O)CNc1nccc(-n2ccnc2C(=O)c2ccc(NC(=O)Nc3ccc(Cl)c(C(F)(F)F)c3)cc2)n1
GI50 [1]: > 30 µM
GI50 [2]: 7.45 µM

C[C@H](O)CNc1nccc(-n2ccnc2C(=O)c2ccc(NC(=O)Nc3ccc(Cl)c(Cl)c3)cc2)n1
GI50 [1]: > 30 µM
GI50 [2]: 11.6 µM

C[C@H](O)CNc1nccc(-n2ccnc2Cc2cccc(NC(=O)c3ccccc3Sc3ccccc3C#N)c2)n1
GI50 [3]: inactive
GI50 [2]: 10 µM

C[C@H](O)CNc1nccc(-n2ccnc2Cc2cccc(NC(=O)c3ccncc3)c2)n1
GI50 [1]: 8.92 µM
GI50 [4]: inactive

C[C@H](O)CNc1nccc(-n2ccnc2C(=O)c2cccc(NC(=O)c3cc(N4CCOCC4)cc(C(F)(F)F)c3)c2)n1
GI50 [3]: inactive
GI50 [2]: 4.9 µM

C[C@H](O)CNc1nccc(-n2ccnc2Cc2cccc(NC(=O)c3ccc(Cl)c(C(F)(F)F)c3)c2)n1
GI50 [1]: 3.3 µM
GI50 [2]: 6.83 µM

C[C@H](O)CNc1nccc(-n2ccnc2C(=O)c2cccc(NC(=O)c3cccc(C(F)(F)F)c3)c2)n1
GI50 [1]: > 30 µM
GI50 [2]: 3.78 µM

CC(=O)N1CCC(C(=O)Nc2cccc(Cc3nccn3-c3ccnc(NC[C@H](C)O)n3)c2)CC1
GI50 [3]: inactive
GI50 [4]: inactive

C[C@H](O)CNc1nccc(-n2ccnc2Cc2cccc(NC(=O)c3cc(N4CCOCC4)cc(C(F)(F)F)c3)c2)n1
GI50 [1]: 6.6 µM
GI50 [2]: 9.7 µM

C[C@H](O)CNc1nccc(-n2ccnc2Cc2cccc(NC(=O)c3cnccn3)c2)n1
GI50 [3]: inactive
GI50 [2]: > 30 µM

C[C@H](O)CNc1nccc(-n2ccnc2Cc2cccc(NC(=O)C3Cc4ccccc4N3)c2)n1 (stereo not given in full)
GI50 [1]: > 30 µM
GI50 [2]: 18.5 µM

C[C@H](O)CNc1nccc(-n2ccnc2C(=O)c2cccc(NC(=O)Nc3ccc(Cl)cc3)c2)n1
GI50 [1]: > 30 µM
GI50 [2]: > 30 µM

C[C@H](O)CNc1nccc(-n2ccnc2Cc2cccc(NC(=O)c3ccccc3-c3ccccc3)c2)n1
GI50 [3]: inactive
GI50 [4]: inactive

C[C@H](O)CNc1nccc(-n2ccnc2C(=O)c2ccc(NC(=O)c3ccc(Cl)c(C(F)(F)F)c3)cc2)n1
GI50 [1]: > 30 µM
GI50 [2]: > 30 µM

C[C@H](O)CNc1nccc(-n2ccnc2Cc2cccc(NC(=O)c3cc(N4CCN(C)CC4)cc(C(F)(F)F)c3)c2)n1
GI50 [1]: 12.3 µM
GI50 [2]: > 30 µM

C[C@H](O)CNc1nccc(-n2ccnc2Cc2cccc(NC(=O)Nc3ccc(Cl)c(Cl)c3)c2)n1
GI50 [1]: 19.2 µM
GI50 [2]: 1.73 µM

C[C@H](O)CNc1nccc(-n2ccnc2Cc2cccc(NC(=O)Cc3c[nH]c4ccccc34)c2)n1
GI50 [1]: > 30 µM
GI50 [2]: > 30 µM

C[C@H](O)CNc1nccc(-n2ccnc2Cc2cccc(NC(=O)Nc3cccc(Cl)c3)c2)n1
GI50 [1]: 26.2 µM
GI50 [2]: 15.3 µM

C[C@H](O)CNc1nccc(-n2ccnc2Cc2cccc(NC(=O)Cc3ccc(-c4ccccc4)cc3)c2)n1
GI50 [1]: 11.2 µM
GI50 [2]: 10 µM
